The test concerns the target hTREM2 (Homo sapiens, UniProt Q9NZC2). Briefly: TREM2 activity by cellular Syk phosphorylation (AlphaScreen/AlphaLISA) in TREM2/DAP12-HEK cells, used for Examples 1-305. It is filed as cell-based. Details: expressed in transfected cells. The note with it: HEK293 Cells. Put shortly: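 Single-cell-cloned HEK293 cells overexpressing TREM2 and DAP12, seeded 20 h, exposed to test articles (1% final DMSO) for 45 min at room temperature. Lysates read for phospho-Syk (Tyr525/526) vs total Syk by AlphaScreen. Signal normalised as percent of control between isotype IgG and 100 nM anti-TREM2 antibody; 4-parameter logistic fit.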

Each structure is given as a SMILES string. Some results are limits rather than exact numbers.

hTREM2, sequence (Q9NZC2 19-230): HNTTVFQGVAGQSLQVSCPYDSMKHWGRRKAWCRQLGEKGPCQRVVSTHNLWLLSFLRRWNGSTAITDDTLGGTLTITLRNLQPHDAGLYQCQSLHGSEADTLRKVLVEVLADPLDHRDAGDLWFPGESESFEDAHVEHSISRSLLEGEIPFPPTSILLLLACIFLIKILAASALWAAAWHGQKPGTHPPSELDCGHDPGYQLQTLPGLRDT
hTREM2, sequence (O43914 22-113 partner): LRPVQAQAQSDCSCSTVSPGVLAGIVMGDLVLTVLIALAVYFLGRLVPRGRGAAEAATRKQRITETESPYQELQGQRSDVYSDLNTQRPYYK

A word on the EC50: it is the concentration giving half of the maximal effect. A higher EC50 goes with lower potency in that assay. `Cc1ccc2c(n1)nc(N1CCO[C@@H](c3cnn(C4CC4)c3)C1)nc2[C@H]1CC[C@@H](C(F)(F)F)CC1` [Example 144, 2-((2S)-2-(1-cyclopropyl-1H-pyrazol-4-yl)-4-morpholinyl)-7-methyl-4-(cis-4-(trifluoromethyl)cyclohexyl)pyrido [2,3-d]pyrimidine]: the half-maximal effective concentration (EC50) lay within 50 to 500 nM; the “hTREM2 Emax” value was “++ (Emax>100 and ≤150)”.

As to `Cc1nc2nc([C@@H]3CCO[C@H](c4cnn(C)c4)C3)cc(-c3ccc(Cl)cc3F)c2nc1C` [Example 250, 8-(4-chloro-2-fluorophenyl)-2,3-dimethyl-6-((2S,4R)-2-(1-methyl-1H-pyrazol-4-yl)tetrahydro-2H-pyran-4-yl)pyrido[2,3-b]pyrazine], the EC50 lay in the range of 500 to 3000 nM; the “hTREM2 Emax” value was “+++ (Emax>150 and ≤250)”.

`Cc1nc2nc(N3CCO[C@@H](c4cnn(C5CC5)c4)C3)nc(-c3ccc(F)cc3F)c2nc1C` [Example 32, 2-((2S)-2-(1-cyclopropyl-1H-pyrazol-4-yl)-4-morpholinyl)-4-(2,4-difluorophenyl)-6,7-dimethylpteridine]: the EC50 is not above 50 nM; the “hTREM2 Emax” value is “+++ (Emax>150 and ≤250)”.

`Cc1cc([C@@H]2C[C@@H](c3nc(-c4ccc(F)cc4F)c4nc(C)c(C)nc4n3)CCO2)ccn1` (single isomer, unassigned) [Example 212]: the EC50 lay in the range of 500 to 3000 nM and the “hTREM2 Emax” value was “++++ (Emax>250)”.

For the molecule `Cc1ccc(-c2nc([C@@H]3CCO[C@@H](c4cnn(C)c4)C3)nc3nc(C)c(C)cc23)c(F)c1` [Example 268, 4-(2-fluoro-4-methylphenyl)-6,7-dimethyl-2-((2R,4R)-2-(1-methyl-1H-pyrazol-4-yl)tetrahydro-2H-pyran-4-yl)pyrido[2,3-d]pyrimidine], the EC50 is 500 to 3000 nM and the “hTREM2 Emax” value is “++++ (Emax>250)”.

Consider `Cc1cc([C@H]2CN(c3nc4nc(C)c(C)nc4c([C@H]4C[C@@H](C(F)F)C4)n3)CCO2)ccn1` [Example 53, 4-(cis-3-(difluoromethyl)cyclobutyl)-6,7-dimethyl-2-((2S)-2-(2-methyl-4-pyridinyl)-4-morpholinyl)pteridine], for which the concentration for a half-maximal effect (EC50) is not above 50 nM; the “hTREM2 Emax” value was “++ (Emax>100 and ≤150)”.

Regarding `Cc1ccc(-c2cc([C@@H]3CCO[C@H](c4cnn(C)c4)C3)nc3nc(C)c(C)nc23)c(F)c1` (single isomer, unassigned) [Example 189], the EC50 was 500 to 3000 nM; the “hTREM2 Emax” value is “+++ (Emax>150 and ≤250)”.

Consider `Cc1ncc([C@@H]2CN(c3nc(-c4ccc(C(F)(F)F)nc4)c4nc(C)c(C)nc4n3)CCO2)cn1` [Example 295, (R)-4-(6,7-dimethyl-4-(6-(trifluoromethyl)pyridin-3-yl)pteridin-2-yl)-2-(2-methylpyrimidin-5-yl)morpholine], for which the half-maximal effective concentration (EC50) was not above 50 nM; the “hTREM2 Emax” value is “+++ (Emax>150 and ≤250)”.

Regarding `Cc1cc([C@H]2CN(c3nc4nc(C)c(C)nc4c([C@H]4C[C@H](C(F)F)C4)n3)CCO2)ccn1` [Example 54, 4-(trans-3-(difluoromethyl)cyclobutyl)-6,7-dimethyl-2-((2S)-2-(2-methyl-4-pyridinyl)-4-morpholinyl)pteridine], the 50% effective concentration (EC50) was not above 50 nM; the “hTREM2 Emax” value is “++ (Emax>100 and ≤150)”.

Regarding `Cc1nc2cc(N3CCO[C@@H](c4cnn(C)c4)C3)cc(-c3ccc(Cl)cc3F)c2nc1C` [Example 162, 5-(4-chloro-2-fluorophenyl)-2,3-dimethyl-7-((2S)-2-(1-methyl-1H-pyrazol-4-yl)-4-morpholinyl) quinoxaline], the concentration for a half-maximal effect (EC50) is not above 50 nM and the “hTREM2 Emax” value is “++++ (Emax>250)”.

Take `Cc1ccc2c(-c3ccc(Cl)cc3F)nc(N3CCO[C@@H](c4cnn(C)c4)C3)nc2n1` [Example 84, 4-(4-chloro-2-fluorophenyl)-7-methyl-2-((2S)-2-(1-methyl-1H-pyrazol-4-yl)-4-morpholinyl)pyrido[2,3-d]pyrimidine]: the EC50 was not above 50 nM; the “hTREM2 Emax” value was “+++ (Emax>150 and ≤250)”.

In the case of `Cc1cnc2c(-c3ccc(Cl)cc3F)nc(N3CCO[C@@H](c4cnn(C)c4)C3)nc2n1` [Example 1, 4-(4-chloro-2-fluorophenyl)-7-methyl-2-((2S)-2-(1-methyl-1H-pyrazol-4-yl)-4-morpholinyl) pteridine], the 50% effective concentration (EC50) is not above 50 nM and the “hTREM2 Emax” value is “++++ (Emax>250)”.

In the case of `Cc1nc2cc([C@H]3CCO[C@H](c4cnn(C)c4)C3)nc(-c3ccc(Cl)cc3F)c2nc1C` (single isomer, unassigned) [Example 194], the half-maximal effective concentration (EC50) lay within 500 to 3000 nM and the “hTREM2 Emax” value is given as “++++ (Emax>250)”.

With `Cc1cc([C@@H]2CN(c3nc4nc(C)c(C)nc4c([C@H]4C[C@H](C(F)(F)F)C4)n3)CCO2)cnn1` [Example 52, 6,7-dimethyl-2-((2R)-2-(6-methyl-4-pyridazinyl)-4-morpholinyl)-4-(trans-3-(trifluoromethyl)cyclobutyl)pteridine], the concentration for a half-maximal effect (EC50) fell in the range of 50 to 500 nM; the “hTREM2 Emax” value was “+++ (Emax>150 and ≤250)”.

Take `Cc1ccc(-c2nc([C@@H]3CCO[C@H](c4ccnc(C)c4)C3)nc3nc(C)c(C)cc23)c(F)c1` (single isomer, unassigned) [Example 223]: the EC50 was 50 to 500 nM and the “hTREM2 Emax” value is recorded as “++++ (Emax>250)”.

With `Cc1ccc2c(-c3ccc(F)cc3F)nc(N3CCO[C@@H](c4cnn(C5CC5)c4)C3)nc2n1` [Example 92, 2-((2S)-2-(1-cyclopropyl-1H-pyrazol-4-yl)-4-morpholinyl)-4-(2,4-difluorophenyl)-7-methylpyrido[2,3-d]pyrimidine], the concentration giving a half-maximal response (EC50) is not above 50 nM; the “hTREM2 Emax” value is “+++ (Emax>150 and ≤250)”.

For `Cc1cc([C@H]2CN(c3nc(-c4ccc(F)cc4F)c4nc(C)c(C)nc4n3)CCO2)ccn1` [Example 33, 4-(2,4-difluorophenyl)-6,7-dimethyl-2-((2S)-2-(2-methyl-4-pyridinyl)-4-morpholinyl)pteridine], the half-maximal effective concentration (EC50) is not above 50 nM and the “hTREM2 Emax” value is given as “++++ (Emax>250)”.

Consider `Cc1nc2nc(N3CCO[C@@H](c4cnn(C)c4)C3)cc(-c3ccc(F)cc3F)c2nc1C` [Example 161, 8-(2,4-difluorophenyl)-2,3-dimethyl-6-((2S)-2-(1-methyl-1H-pyrazol-4-yl)-4-morpholinyl)pyrido [2,3-b]pyrazine], for which the concentration giving a half-maximal response (EC50) is not above 50 nM; the “hTREM2 Emax” value was “+++ (Emax>150 and ≤250)”.

Regarding `Cc1cc([C@H]2C[C@@H](c3nc4nc(C)c(C)nc4c([C@H]4C[C@H](C(F)(F)F)C4)n3)CCO2)ccn1` (single isomer, unassigned) [Example 215], the half-maximal effective concentration (EC50) was not above 50 nM; the “hTREM2 Emax” value was “+++ (Emax>150 and ≤250)”.

As for `Cc1nc2nc([C@H]3CCO[C@@H](c4cnn(C)c4)C3)nc(C3CCC(F)(F)CC3)c2nc1C` (single isomer, unassigned) [Example 176], the concentration giving a half-maximal response (EC50) was not above 50 nM; the “hTREM2 Emax” value is “+++ (Emax>150 and ≤250)”.

With `Cc1cnc2c(-c3ccc(Cl)cc3F)nc(N3CCO[C@@H](c4cnn(C5COC5)c4)C3)cc2n1` [Example 129, 5-(4-chloro-2-fluorophenyl)-2-methyl-7((2S)-2-(1-(3-oxetanyl)-1H-pyrazol-4-yl)-4-morpholinyl) pyrido[3,4-b]pyrazine], the EC50 fell in the range of 50 to 500 nM and the “hTREM2 Emax” value is listed as “++++ (Emax>250)”.

Consider `Cc1ncc([C@@H]2CN(c3nc(-c4ccc(Cl)cc4F)c4nc(C)c(C)nc4n3)CCO2)cn1` (single isomer, unassigned) [Example 25], for which the concentration giving a half-maximal response (EC50) was not above 50 nM and the “hTREM2 Emax” value is given as “++++ (Emax>250)”.

For `Cc1cnc2c(-c3ccc(Cl)cc3F)nc(N3CCO[C@@H](c4cnn(C5CC5)c4)C3)nc2n1` [Example 2, 4-(4-chloro-2-fluorophenyl)-2-((2S)-2-(1-cyclopropyl-1H-pyrazol-4-yl)-4-morpholinyl)-7-methylpteridine], the concentration giving a half-maximal response (EC50) is not above 50 nM; the “hTREM2 Emax” value is “+++ (Emax>150 and ≤250)”.

On to `CCc1ccc2c(-c3ccc(F)cc3F)nc(N3CCO[C@@H](c4cnn(C)c4)C3)nc2n1` [Example 167, 4-(2,4-difluorophenyl)-7-ethyl-2((2S)-2-(1-methyl-1H-pyrazol-4-yl)-4-morpholinyl) pyrido[2,3-d]pyrimidine], for which the EC50 is 50 to 500 nM and the “hTREM2 Emax” value is listed as “++++ (Emax>250)”.

In the case of `Cc1nc2nc(N3CCO[C@@H](c4cnn(C)c4)C3)nc(C3=CCC(F)(F)CC3)c2nc1C` [Example 125, 4-(4,4-difluoro-1-cyclohexen-1-yl)-6,7-dimethyl-2-((2S)-2-(1-methyl-1H-pyrazol-4-yl)-4-morpholinyl)pteridine], the EC50 is 50 to 500 nM; the “hTREM2 Emax” value is “+++ (Emax>150 and ≤250)”.

For the molecule `Cc1nc2nc(N3CC[C@H](C(F)F)C3)nc(-c3ccc(F)cc3F)c2nc1C` [Example 244, (S)-2-(3-(difluoromethyl)pyrrolidin-1-yl)-4-(2,4-difluorophenyl)-6,7-dimethylpteridine], the EC50 was in the range of 500 to 3000 nM; the “hTREM2 Emax” value was “+++ (Emax>150 and ≤250)”.

On to `Cc1nc2nc(N3CCO[C@@H](c4cnn(C)c4)C3)nc(N3CCC(F)(F)C3)c2nc1C` [Example 71, 4-(3,3-difluoro-1-pyrrolidinyl)-6,7-dimethyl-2-((2S)-2-(1-methyl-1H-pyrazol-4-yl)-4-morpholinyl)pteridine], for which the concentration giving a half-maximal response (EC50) lay within 3000 to 100000 nM; the “hTREM2 Emax” value is “++ (Emax>100 and ≤150)”.

On to `Cc1nc2nc([C@H]3CCO[C@H](c4cnn(C)c4)C3)cc(-c3ccc(F)cc3F)c2nc1C` [Example 265, 8-(2,4-difluorophenyl)-2,3-dimethyl-6-((2S,4S)-2-(1-methyl-1H-pyrazol-4-yl)tetrahydro-2H-pyran-4-yl)pyrido[2,3-b]pyrazine], for which the EC50 is 500 to 3000 nM; the “hTREM2 Emax” value was “+++ (Emax>150 and ≤250)”.

With `Cc1nc2nc(N3CCOC(C4CCOC4)C3)nc(-c3ccc(Cl)cc3F)c2nc1C` (stereo not shown) [Example 26, 4-(4-chloro-2-fluorophenyl)-6,7-dimethyl-2-(2-(tetrahydro-3-furanyl)-4-morpholinyl)pteridine], the EC50 is not above 50 nM and the “hTREM2 Emax” value is on record as “++++ (Emax>250)”.
